{"source": "paper PMC9106868", "about": "(European journal of medicinal chemistry, 2022)", "key": {"[1]": {"target": "GluN1/2A NMDARs (Rattus norvegicus, UniProt P35439+Q00959)", "sequence (Q00959 23-1464, other chains not shown)": "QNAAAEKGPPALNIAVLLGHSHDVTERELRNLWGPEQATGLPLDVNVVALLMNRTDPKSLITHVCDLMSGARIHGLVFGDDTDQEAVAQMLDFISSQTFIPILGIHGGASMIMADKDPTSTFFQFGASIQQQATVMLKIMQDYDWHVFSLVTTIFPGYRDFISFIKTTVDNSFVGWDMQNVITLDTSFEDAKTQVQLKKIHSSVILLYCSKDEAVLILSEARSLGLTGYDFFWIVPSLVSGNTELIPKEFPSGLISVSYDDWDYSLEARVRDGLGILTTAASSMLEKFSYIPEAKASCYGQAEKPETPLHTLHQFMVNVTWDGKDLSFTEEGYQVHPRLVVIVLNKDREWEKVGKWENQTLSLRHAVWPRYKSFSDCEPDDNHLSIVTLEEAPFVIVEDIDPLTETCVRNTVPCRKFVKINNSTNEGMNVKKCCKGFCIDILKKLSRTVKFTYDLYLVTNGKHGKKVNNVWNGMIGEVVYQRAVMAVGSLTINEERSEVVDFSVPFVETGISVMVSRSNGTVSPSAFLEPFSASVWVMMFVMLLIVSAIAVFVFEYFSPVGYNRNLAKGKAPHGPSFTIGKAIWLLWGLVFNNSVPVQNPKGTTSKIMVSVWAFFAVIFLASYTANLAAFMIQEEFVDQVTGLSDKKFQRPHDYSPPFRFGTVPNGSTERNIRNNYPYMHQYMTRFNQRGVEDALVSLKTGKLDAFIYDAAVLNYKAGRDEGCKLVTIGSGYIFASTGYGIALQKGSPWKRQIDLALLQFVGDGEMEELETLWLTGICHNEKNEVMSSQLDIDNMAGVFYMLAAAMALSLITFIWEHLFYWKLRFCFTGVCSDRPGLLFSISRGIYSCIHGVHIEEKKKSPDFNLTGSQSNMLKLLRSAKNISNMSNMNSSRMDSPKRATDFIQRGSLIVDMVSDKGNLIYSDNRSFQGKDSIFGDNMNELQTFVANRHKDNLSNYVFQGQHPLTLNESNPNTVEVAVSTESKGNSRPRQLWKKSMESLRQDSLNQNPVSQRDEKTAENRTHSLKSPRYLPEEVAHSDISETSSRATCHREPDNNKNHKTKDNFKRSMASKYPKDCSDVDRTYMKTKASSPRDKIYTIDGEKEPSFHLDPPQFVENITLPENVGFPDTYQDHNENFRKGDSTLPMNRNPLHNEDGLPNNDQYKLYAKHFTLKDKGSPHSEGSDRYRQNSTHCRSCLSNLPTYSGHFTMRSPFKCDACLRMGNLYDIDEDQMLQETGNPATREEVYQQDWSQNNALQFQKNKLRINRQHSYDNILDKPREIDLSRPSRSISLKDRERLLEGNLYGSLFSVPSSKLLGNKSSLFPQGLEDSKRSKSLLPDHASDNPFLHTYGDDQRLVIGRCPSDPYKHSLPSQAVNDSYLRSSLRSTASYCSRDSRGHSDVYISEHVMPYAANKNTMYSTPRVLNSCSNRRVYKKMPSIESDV", "assay_type": "cell-based", "conditions": "after removal of 10 μM blocker"}, "[2]": {"tested_on": "5XFAD mice hippocampus", "assay": "Western blot of hippocampal proteins after treatment", "assay_type": "in vivo, mouse", "conditions": "5 mg / kg"}, "[3]": {"tested_on": "NMDAR", "conditions": "cited from earlier work; for V0: previously reported values, ref [28],[63],[68],[80]–[81]; for IC50: therapeutically beneficial NMDAR antagonists, ref [28],[61]–[68]"}, "[4]": {"tested_on": "Caco-2 cells", "assay": "Caco-2 cell permeability", "assay_type": "in vitro ADME", "conditions": "10 μM in HBSS, 1 hour, 37 °C"}}}
{"compound": "CC12CC3CC(C)(C1)CC(N)(C3)C2", "note": "[Memantine, memantine]", "values": [{"measurement": "Unblocking kinetics, τweighted", "setting": "[1]", "value": "6.4 ± 1.4", "unit": "s"}, {"measurement": "Calbindin D-28K protein levels", "setting": "[2]", "value": "reverts calbindin D-28K protein levels to WT levels"}, {"measurement": "PSD95 expression", "setting": "[2]", "value": "rescues expression of postsynaptic density protein (PSD) 95"}, {"measurement": "p-CREB protein levels in the nucleus", "setting": "[2]; vs untreated 5XFAD", "value": "significantly increased p-CREB protein levels in the nucleus"}, {"measurement": "V0", "setting": "[3]", "value": "26 – 30 mV"}, {"measurement": "IC50", "setting": "[3]", "value": "1 to 2", "unit": "µM"}]}
{"compound": "NC12CC3CC(CC(C3)C1)C2", "note": "[amantadine]", "values": [{"measurement": "IC50", "setting": "[3]", "value": "40 to 75", "unit": "µM"}]}
{"compound": "CNC1(c2ccccc2Cl)CCCCC1=O", "note": "(stereo not drawn) [ketamine]", "values": [{"measurement": "V0", "setting": "[3]", "value": "26 – 30 mV"}]}
{"compound": "Lucifer yellow", "values": [{"measurement": "Caco-2 Papp (monolayer integrity)", "setting": "[4]", "value": "≤ 1", "unit": "×10⁻⁶ cm/s"}]}
